The numbers were not newly measured in patent US8911765B2, “Biodegradable, polymer coverings for breast implants” (Tyrx, Inc., priority 2007, dated 2014), which cites them from elsewhere.

The structures appear in SMILES notation.

For this series the following is noted: rabbit, in vivo.

Turning to `O=S(=O)([O-])CCS.[Na+]` [Mesna, sodium 2-mercaptoethane sulfonate], the “capsule formation around implants” value is on record as “reduce capsule formation”.
